In patent publication US20090214507A1, “METHOD OF TREATING PREVENTING, INHIBITING OR REDUCING DAMAGE TO CARDIAC TISSUE” (RegeneRx Biopharmaceuticals, Inc., priority 2004, published 2009):

Columns and labels:
embryonic heart explants = assay: embryonic heart explant collagen gel migration assay; type: cell-based, mouse
Protocol: To test the effects of secreted thymosin β4 on cardiac cell migration, an embryonic heart explant system designed to assay cell migration and transformation events on a three-dimensional collagen gel was utilized. In this assay, explants of adjacent embryonic myocardium and endocardium from valve-forming regions were placed on a collagen gel with the endocardium adjacent to the collagen.
(§1) To test the response of post-natal cardiomyocytes, primary rat neonatal cardiomyocytes were cultured on laminin-coated glass and treated the cells with phosphate buffered saline (PBS) or thymosin β4.
To determine if activation of ILK was necessary for the observed effects of thymosin β4, a well-described ILK inhibitor, wortmannin, was employed, which inhibits ILK's upstream kinase, phosphatidylinositol 3-kinase (PI3-kinase). Using myocardial cell migration and beating frequency as assays for thymosin β4 activity, embryonic heart explants were cultured as described above in the presence of thymosin β4 with or without wortmannin.
Outflow tract was dissected from E11.5 wild type mouse embryos and placed on collagen matrices as previously described. After 10 hours of attachment explants were incubated in 30 ng/300 μl thymosin β4 in PBS, PBS alone or thymosin β4 and 100 nM wortmannin. Cultures were carried out for 3-9 days at 37° C. 5% CO2 and fixed in 4% paraformaldehyde in PBS for 10 min at RT. Cells were counted for quantification of migration and distance using at least three separate explants under each condition for endothelial migration and eight separate explants for myocardial migration.
Paraformaldehyde-fixed explants were permeabilized for 10 min at RT with Permeabilize solution (10 mM PIPES pH6.8; 50 mMNaC1; 0.5% Triton X-100; 300 mM Sucrose; 3 mM MgC12) and rinsed with PBS 2×5 min at RT. After a series of blocking and rinsing steps, detection antibodies were used and explants rinsed and incubated with Equilibration buffer (Anti-Fade kit) 10 min at room temperature. Explants were scooped to a glass microscope slide, covered, and examined by fluorescein microscopy. TUNEL assay was performed using ApopTag Plus Fluorescein In Situ Apoptosis detection kit (Intergen Company #S7111) as recommended.

ILK / Akt = assay: western blot of heart lysates after coronary ligation; type: in vivo, mouse
Protocol: Because thymosin β4 upregulates ILK activity and Akt phosphorylation in cultured cells, the effects on these kinases in vivo were tested. […] Total Akt protein was not increased.
Myocardial infarction was produced in fifty-eight male C57BL/6J mice at 16 weeks of age (25-30 g) by ligation of the left anterior descending coronary artery as previously described. Twenty-nine of the ligated mice received thymosin β4 treatment immediately following ligation and the remaining twenty-nine received PBS injections. Treatment was given intracardiac with thymosin β4 (200 ng in 10 ul collagen) or with 10 ul of collagen; intraperitoneally with thymosin β4 (150 μg in 300 μl PBS) or with […]; or by both intracardiac and intraperitoneal injections. Intraperitoneal injections were given every three days until mice were sacrificed. Doses were based on previous studies of thymosin β4 biodistribution. Hearts were removed, weighed and fixed for histologic sectioning. Additional mice were operated on in a similar fashion for studies 0.5, 1, 3, 6 and 11 days after ligation.

[1] = tested on: primary rat neonatal cardiomyocytes; assay: primary neonatal cardiomyocyte culture on laminin-coated glass; type: cell-based
Protocol: as §1
Primary culture of neonatal cardiomyocytes typically survived for approximately one to two weeks with some cells beating up to two weeks when grown on laminin-coated slides in our laboratory. […] In addition, the rate of beating was consistently faster in thymosin β4-treated neonatal cardiomyocytes (95 vs. 50 beats per minute, p<0.02), indicating either a change in cell-cell communication or more vigorous cardiomyocytes.

[2] = tested on: cardiac endothelial cells; assay: collagen gel assay, transformation of cardiac endothelial cells to mesenchymal cells; type: cell-based; conditions: Tβ4 at physiological concentrations
Protocol: Synthetic Tβ4 and an antibody to Tβ4 was provided by RegeneRx Biopharmaceuticals, Inc. (3 Bethesda Metro Center, Suite 700, Bethesda, Md. 20814) and were tested in a collagen gel assay to determine their effects on the Transformation of cardiac endothelial cells to mesenchymal cells. It is well established that development of heart valves and other cardiac tissue are formed by epithelial-mesenchymal transformation and that defects in this process can cause serious cardiovascular malformation and injury during development and throughout life. […] Transformation of atrioventricular endocardium into invasive mesenchyme is an aspect of the formation and maintenance of normal cardiac tissue and in the formation of heart valves.

[3] = target: T1, integrin linked kinase (ILK) (Homo sapiens, UniProt Q13418); assay: coimmunoprecipitation with ILK; type: binding; conditions: coimmunoprecipitation in transfected cultured cells
T1 construct: expressed in transfected cells; host or cells: Cos and 10T1/2 cells
T1 sequence (Q13418 1-452): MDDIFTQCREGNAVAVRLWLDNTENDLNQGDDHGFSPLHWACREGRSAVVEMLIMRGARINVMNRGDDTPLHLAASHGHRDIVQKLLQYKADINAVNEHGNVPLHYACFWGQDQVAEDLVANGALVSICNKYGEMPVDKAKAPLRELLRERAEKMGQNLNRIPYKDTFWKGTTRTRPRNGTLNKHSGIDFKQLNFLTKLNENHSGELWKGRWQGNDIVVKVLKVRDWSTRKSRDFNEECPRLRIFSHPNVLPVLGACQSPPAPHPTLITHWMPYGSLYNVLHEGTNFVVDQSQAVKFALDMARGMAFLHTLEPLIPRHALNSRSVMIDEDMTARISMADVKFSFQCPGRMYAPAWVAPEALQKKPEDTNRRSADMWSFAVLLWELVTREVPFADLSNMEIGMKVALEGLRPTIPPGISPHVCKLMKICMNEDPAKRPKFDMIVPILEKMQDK
Description: To investigate the potential mechanisms through which thymosin β4 might be influencing cell migration and survival events, thymosin β4 interacting proteins were searched. The amino-terminus of thymosin β4 was fused with affi-gel beads resulting in exposure of the carboxy-terminus that allowed identification of previously unknown interacting proteins but prohibited association with actin. An E9.5-12.5 mouse heart T7 phage cDNA library was synthesized and screened by phage display and thymosin β4-interacting clones were enriched and confirmed by ELISA. […] PINCH and integrin linked kinase (ILK) interact directly with one another and indirectly with the actin cytoskeleton as part of a larger complex involved in cell-extracellular matrix interactions known as the focal adhesion complex. PINCH and ILK are required for cell motility and for cell survival, in part by promoting phosphorylation of the serine-threonine kinase Akt/protein kinase B, a central kinase in survival and growth signaling pathways. […] The PINCH interaction with thymosin β4 mapped to the fourth and fifth LIM domains of PINCH while the amino terminal ankryin domain of ILK was sufficient for thymosin β4 interaction.
Cos and 10 T1/2 cells were transfected with thymosin β4, PINCH and/or ILK and lysates precipitated with antibodies to each as previously described. […]

Substance: thymosin β4
- number of migrating endothelial cells (embryonic heart explants; E11.5 explants, compared to PBS, p<0.01): increased number of migrating endothelial cells
- cell death (TUNEL assay) in migrated cells (embryonic heart explants; compared to control cells): No significant difference
- proliferative rate (phosho-histone H3 immunostaining) in migrated cells (embryonic heart explants; compared to control cells): No significant difference
- migration of myocardial cells away from the explant (embryonic heart explants; thymosin β4 added to primary explants on collagen gel): a large number of spontaneously beating, cardiac muscle actin-positive cells had migrated away from the explant
- total Akt protein (ILK / Akt): not increased
- level of ILK protein in heart lysates (ILK / Akt; compared with PBS treated mice): increased
- amount of phosphorylated Akt-5473 (ILK / Akt; phospho-specific antibodies): elevation
- migrational distance of neonatal cardiomyocytes ([1]; compared to control, p<0.05): significantly increased
- survival in culture, rhythmically contracting myocytes visible ([1]; control cultures survive approximately one to two weeks): up to 28 days
- rate of beating ([1]; vs. 50 in control, p<0.02): 95 beats per minute
- transformation of endocardial cells to mesenchymal cells [2]: markedly enhances
- interaction with ILK [3]: weaker than with PINCH
